{"source": "patent US20170362283A1", "about": "“NISIN-BASED COMPOUNDS AND USE THEREOF IN THE TREATMENT OF BACTERIAL INFECTIONS” (UNIVERSITEIT UTRECHT HOLDING B.V., priority 2015, published 2017)", "key": {"M. luteus": {"tested_on": "M. luteus", "type": "cell-based", "settings": "duplicate experiments", "procedure,_shortened": "(§1)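 Broth dilution MIC following CLSI M07-A9; overnight TSB cultures diluted to 0.5×10^6 CFU in TSB and incubated with compound at 37° C for 16 hours. MIC read by visual inspection of growth.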"}, "VRE 155": {"tested_on": "VRE 155", "type": "cell-based", "settings": "duplicate experiments", "procedure,_shortened": "as §1"}, "erythrocytes": {"tested_on": "erythrocytes", "assay": "Hemolysis assay", "settings": "human erythrocytes, 1 h, at 32 μg/mL", "protocol": "Human whole blood was centrifuged at 600×g for 15 min and levels of plasma and hematocrit were marked on the tube. Plasma was removed and the erythrocytes washed 3× with PBS (centrifuging at 600×g for 15 mins). After discarding the supernatant, the packed cells were stored on ice. 100 μL of the peptides (128 μg/mL in PBS, 2% DMSO) as well as a control solution comprised of 2% DMSO in PBS were added to the top row of a polypropylene, round-bottom 96 well plate and 50 μL of PBS to the rest of the wells. The peptides and the DMSO control solutions were then diluted serially down the rows. 200 μL of the packed cells were added to PBS (10 mL) and 50 μL of this suspension was added to each well. A column with DI water containing 0.1% Triton X-100 was used as the 100% lysis control, and the column containing the serially-diluted PBS (1.0% DMSO) control served as the 0% lysis reference. The cells were incubated at 37° C. for 1 h. After incubation the plates were centrifuged (800×g, 5 min) and 25 μL of the supernatant was added to 100 μL DI water in a flat-bottom plate (polystyrene). The absorption at 414 nm was recorded to measure the amount of free hemoglobin."}, "E. faecium E745": {"tested_on": "E. faecium E745", "assay": "BioScreen growth assay for E. faecium E745", "type": "cell-based", "settings": "5 μM", "protocol": "(§2) A BioScreen C instrument (Oy Growth Curves AB, Helsinki, Finland) was used to monitor effects of the compounds (6), (10), and (12) and the effect of compound (24) with R1-group (e), or Comparative compound B (nisin) on E. faecium growth (each compound administered at a fixed concentration 5 μM). E. faecium strains were inoculated at an initial OD660 of 0.05 into 300 μl TSB containing 1% DMSO and 1% glucose or into the same medium containing the antibiotic compounds at a final concentration of 5 μM. […]\n(§3) The E. faecium strains used in these experiments are E. faecium E745 (vancomycin-ampicillin resistant hospital outbreak strain), E. faecium E980 (vancomycin-ampicillin susceptible human commensal isolate), E. Faecium E1133 (vancomycin-ampicillin resistant hospital outbreak strain), and E. faecium E1162 (vancomycin-susceptible ampicillin-resistant clinical isolate). The BioScreen growth assays for each strain was determined for the compounds (6), (10), (12) and also for compound (24) with R1-group (e) as well as nisin (Comparative compound B) and compared to non-treated strains, the results being shown in the Tables 9 to 12 below."}, "MRSA WKZ2": {"tested_on": "MRSA WKZ2", "type": "cell-based, Staphylococcus aureus", "settings": "duplicate experiments", "procedure,_shortened": "as §1"}, "MRSA USA300": {"tested_on": "MRSA USA300", "type": "cell-based, Staphylococcus aureus", "settings": "duplicate experiments", "procedure,_shortened": "as §1"}, "[1]": {"assay": "Lipid II-binding in model membranes (carboxyfluorescein efflux from LUVs)", "type": "biochemical", "settings": "concentration of 5 nM; CF-loaded DOPC LUVs with 0.2% lipid II", "protocol": "Large unilamellar vesicles (LUVs), composed of 1,2-dioleoyl-sn-glycero-3-phosphocholine (DOPC) spiked with 0.2% lipid II, were loaded with carboxyfluorescein (CF). The CF efflux was monitored by measuring the increase in fluorescence intensity at 515 nm, with excitation at 492 nm. In a cuvette, a solution (1 mL) of CF-loaded vesicles (20 μM final concentration) in buffer (Tris.HCl, pH 7.0 containing 100 mM NaCl) was prepared and the relevant final concentration of compounds (6), (10), and (12), and also compound (24) with R1-group (e), were added and the mixture was stirred for 1 min and the fluorescence was recorded (A0). After ca. 10 seconds, nisin (comparative compound B) was added (5 nM final concentration) and the fluorescence was followed until it stabilized, then recorded (Astable). Total membrane leakage was induced by the addition of Triton-X100 (final concentration 0.1%) and the fluorescence was recorded (Atotal). The percentile values were calculated by: […]"}, "E. faecium E980": {"tested_on": "E. faecium E980", "assay": "BioScreen growth assay for E. faecium E980", "type": "cell-based", "settings": "5 μM", "protocol": "as §2, §3"}, "E. faecium E1133": {"tested_on": "E. faecium E1133", "assay": "BioScreen growth assay for E. faecium E1133", "type": "cell-based", "settings": "5 μM", "protocol": "as §2, §3"}}, "note": "Like-named read-outs stand apart in the source and are kept apart here."}
{"substance": "nisin [Compound B]", "values": [{"measurement": "MIC values M. luteus", "setting": "M. luteus", "value": "0.02 to 0.03", "unit": "µg/mL"}, {"measurement": "MIC values VRE 155", "setting": "VRE 155", "value": 5, "unit": "µg/mL"}, {"measurement": "hemolysis", "setting": "erythrocytes", "value": "negligible hemolysis"}, {"measurement": "OD600", "setting": "E. faecium E745; time 0 h", "value": 0.01733}, {"measurement": "OD600", "setting": "E. faecium E745; time 4 h", "value": 0.01033}, {"measurement": "OD600", "setting": "E. faecium E745; time 8 h", "value": 0.01033}, {"measurement": "OD600", "setting": "E. faecium E745; time 12 h", "value": 0.01067}, {"measurement": "OD600", "setting": "E. faecium E745; time 16 h", "value": 0.008667}, {"measurement": "MIC values MRSA WKZ2", "setting": "MRSA WKZ2", "value": 10, "unit": "µg/mL"}, {"measurement": "MIC values MRSA USA300", "setting": "MRSA USA300", "value": 10, "unit": "µg/mL"}, {"measurement": "leakage of the CF dye", "setting": "[1]", "value": "about 50%"}, {"measurement": "MIC", "setting": "thirty VRE strains; VRE strain E0013, GBR, vanA", "value": 8, "unit": "µg/mL"}, {"measurement": "MIC", "setting": "thirty VRE strains; VRE strain E0072, NLD, vanA", "value": 2, "unit": "µg/mL"}, {"measurement": "MIC", "setting": "thirty VRE strains; VRE strain E0300, USA, vanA", "value": 8, "unit": "µg/mL"}, {"measurement": "MIC", "setting": "thirty VRE strains; VRE strain E0321, FRA, vanA", "value": 2, "unit": "µg/mL"}, {"measurement": "MIC", "setting": "thirty VRE strains; VRE strain E0333, ISR, vanA", "value": "4 to 8", "unit": "µg/mL"}, {"measurement": "MIC", "setting": "thirty VRE strains; VRE strain E0338, ITA, vanA", "value": 8, "unit": "µg/mL"}, {"measurement": "MIC", "setting": "thirty VRE strains; VRE strain E0341, GBR, vanA", "value": 4, "unit": "µg/mL"}, {"measurement": "MIC", "setting": "thirty VRE strains; VRE strain E0506, AUS, vanA", "value": "4 to 8", "unit": "µg/mL"}, {"measurement": "MIC", "setting": "thirty VRE strains; VRE strain E0745, NLD, vanA", "value": 4, "unit": "µg/mL"}, {"measurement": "MIC", "setting": "thirty VRE strains; VRE strain E1130, USA, vanA", "value": "4 to 8", "unit": "µg/mL"}, {"measurement": "MIC", "setting": "thirty VRE strains; VRE strain E1441, GRC, vanA", "value": 4, "unit": "µg/mL"}, {"measurement": "MIC", "setting": "thirty VRE strains; VRE strain E1679, BRA, vanA", "value": 4, "unit": "µg/mL"}, {"measurement": "MIC", "setting": "thirty VRE strains; VRE strain E1763, BEL, vanA", "value": 8, "unit": "µg/mL"}, {"measurement": "MIC", "setting": "thirty VRE strains; VRE strain E2297, USA, vanA", "value": 4, "unit": "µg/mL"}, {"measurement": "MIC", "setting": "thirty VRE strains; VRE strain E2359, SGP, vanB", "value": 8, "unit": "µg/mL"}, {"measurement": "MIC", "setting": "thirty VRE strains; VRE strain E2365, HUN, vanB", "value": "2 to 4", "unit": "µg/mL"}, {"measurement": "MIC", "setting": "thirty VRE strains; VRE strain E2373, SRB, vanA", "value": 4, "unit": "µg/mL"}, {"measurement": "MIC", "setting": "thirty VRE strains; VRE strain E6016, LVA, vanA", "value": 4, "unit": "µg/mL"}, {"measurement": "MIC", "setting": "thirty VRE strains; VRE strain E7312, NLD, vanA", "value": 4, "unit": "µg/mL"}, {"measurement": "MIC", "setting": "thirty VRE strains; VRE strain E7314, NLD, vanB", "value": "4 to 8", "unit": "µg/mL"}, {"measurement": "MIC", "setting": "thirty VRE strains; VRE strain E7319, NLD, vanA", "value": 4, "unit": "µg/mL"}, {"measurement": "MIC", "setting": "thirty VRE strains; VRE strain E7329, NLD, vanA", "value": 4, "unit": "µg/mL"}, {"measurement": "MIC", "setting": "thirty VRE strains; VRE strain E7401, NLD, vanB", "value": 8, "unit": "µg/mL"}, {"measurement": "MIC", "setting": "thirty VRE strains; VRE strain E7403, NLD, vanB", "value": 4, "unit": "µg/mL"}, {"measurement": "MIC", "setting": "thirty VRE strains; VRE strain E7413, NLD, vanA", "value": 4, "unit": "µg/mL"}, {"measurement": "MIC", "setting": "thirty VRE strains; VRE strain E7424, NLD, vanB", "value": 4, "unit": "µg/mL"}, {"measurement": "MIC", "setting": "thirty VRE strains; VRE strain E7464, NLD, vanB", "value": 4, "unit": "µg/mL"}, {"measurement": "MIC", "setting": "thirty VRE strains; VRE strain E8218, NLD, vanB", "value": 4, "unit": "µg/mL"}, {"measurement": "MIC", "setting": "thirty VRE strains; VRE strain E8235, NLD, vanB", "value": 4, "unit": "µg/mL"}, {"measurement": "MIC", "setting": "thirty VRE strains; VRE strain E8237, NLD, vanA", "value": 8, "unit": "µg/mL"}, {"measurement": "OD600", "setting": "E. faecium E980; time 0 h", "value": 0.016}, {"measurement": "OD600", "setting": "E. faecium E980; time 4 h", "value": 0.01167}, {"measurement": "OD600", "setting": "E. faecium E980; time 8 h", "value": 0.011}, {"measurement": "OD600", "setting": "E. faecium E980; time 12 h", "value": 0.011}, {"measurement": "OD600", "setting": "E. faecium E980; time 16 h", "value": 0.01067}, {"measurement": "OD600", "setting": "E. faecium E1133; time 0 h", "value": 0.016}, {"measurement": "OD600", "setting": "E. faecium E1133; time 4 h", "value": 0.009667}, {"measurement": "OD600", "setting": "E. faecium E1133; time 8 h", "value": 0.009333}, {"measurement": "OD600", "setting": "E. faecium E1133; time 12 h", "value": 0.009333}, {"measurement": "OD600", "setting": "E. faecium E1133; time 16 h", "value": 0.008667}]}
